# Data published in BigSolDB 2.1.
smiles,measurement,setting,value
CCOC(=O)c1c(CSc2ccccc2)n(C)c2cc(Br)c(O)c(CN(C)C)c12.Cl.O,solubility (mole fraction),"in DMF, 293.15 K",0.0228
same,solubility (mole fraction),"in DMF, 298.15 K",0.0244
same,solubility (mole fraction),"in DMF, 303.15 K",0.0276
same,solubility (mole fraction),"in DMF, 308.15 K",0.0317
same,solubility (mole fraction),"in DMF, 313.15 K",0.0351
same,solubility (mole fraction),"in DMF, 318.15 K",0.0396
same,solubility (mole fraction),"in DMF, 323.15 K",0.0457
same,solubility (mole fraction),"in DMF, 328.15 K",0.0513
same,solubility (mole fraction),"in DMF, 333.15 K",0.0596
same,solubility (mole fraction),"in NMP, 293.15 K",0.0325
same,solubility (mole fraction),"in NMP, 298.15 K",0.0352
same,solubility (mole fraction),"in NMP, 303.15 K",0.0375
same,solubility (mole fraction),"in NMP, 308.15 K",0.0417
same,solubility (mole fraction),"in NMP, 313.15 K",0.0462
same,solubility (mole fraction),"in NMP, 318.15 K",0.0503
same,solubility (mole fraction),"in NMP, 323.15 K",0.0554
same,solubility (mole fraction),"in NMP, 328.15 K",0.0635
same,solubility (mole fraction),"in NMP, 333.15 K",0.0722
same,solubility (mole fraction),"in THF, 293.15 K",0.000382
same,solubility (mole fraction),"in THF, 298.15 K",0.000492
same,solubility (mole fraction),"in THF, 303.15 K",0.000678
same,solubility (mole fraction),"in THF, 308.15 K",0.000947
same,solubility (mole fraction),"in THF, 313.15 K",0.00125
same,solubility (mole fraction),"in THF, 318.15 K",0.00163
same,solubility (mole fraction),"in THF, 323.15 K",0.00211
same,solubility (mole fraction),"in THF, 328.15 K",0.00265
same,solubility (mole fraction),"in acetone, 293.15 K",0.000193
same,solubility (mole fraction),"in acetone, 298.15 K",0.000252
same,solubility (mole fraction),"in acetone, 303.15 K",0.000364
same,solubility (mole fraction),"in acetone, 308.15 K",0.000524
same,solubility (mole fraction),"in acetone, 313.15 K",0.000696
same,solubility (mole fraction),"in acetone, 318.15 K",0.000937
same,solubility (mole fraction),"in acetone, 323.15 K",0.00128
same,solubility (mole fraction),"in ethanol, 293.15 K",0.00973
same,solubility (mole fraction),"in ethanol, 298.15 K",0.0116
same,solubility (mole fraction),"in ethanol, 303.15 K",0.0132
same,solubility (mole fraction),"in ethanol, 308.15 K",0.0154
same,solubility (mole fraction),"in ethanol, 313.15 K",0.018
same,solubility (mole fraction),"in ethanol, 318.15 K",0.0234
same,solubility (mole fraction),"in ethanol, 323.15 K",0.0294
same,solubility (mole fraction),"in ethanol, 328.15 K",0.0366
same,solubility (mole fraction),"in ethanol, 333.15 K",0.0436
same,solubility (mole fraction),"in ethyl acetate, 293.15 K",7.86e-05
same,solubility (mole fraction),"in ethyl acetate, 298.15 K",0.000101
same,solubility (mole fraction),"in ethyl acetate, 303.15 K",0.000125
same,solubility (mole fraction),"in ethyl acetate, 308.15 K",0.000158
same,solubility (mole fraction),"in ethyl acetate, 313.15 K",0.0002
same,solubility (mole fraction),"in ethyl acetate, 318.15 K",0.000245
same,solubility (mole fraction),"in ethyl acetate, 323.15 K",0.000295
same,solubility (mole fraction),"in ethyl acetate, 328.15 K",0.000354
same,solubility (mole fraction),"in ethyl acetate, 333.15 K",0.000426
same,solubility (mole fraction),"in isopropanol, 293.15 K",0.00114
same,solubility (mole fraction),"in isopropanol, 298.15 K",0.00161
same,solubility (mole fraction),"in isopropanol, 303.15 K",0.0021
same,solubility (mole fraction),"in isopropanol, 308.15 K",0.0029
same,solubility (mole fraction),"in isopropanol, 313.15 K",0.00356
same,solubility (mole fraction),"in isopropanol, 318.15 K",0.00476
same,solubility (mole fraction),"in isopropanol, 323.15 K",0.00602
same,solubility (mole fraction),"in isopropanol, 328.15 K",0.00749
same,solubility (mole fraction),"in isopropanol, 333.15 K",0.00955
same,solubility (mole fraction),"in methanol, 293.15 K",0.0405
same,solubility (mole fraction),"in methanol, 298.15 K",0.0442
same,solubility (mole fraction),"in methanol, 303.15 K",0.0494
same,solubility (mole fraction),"in methanol, 308.15 K",0.0541
same,solubility (mole fraction),"in methanol, 313.15 K",0.0622
same,solubility (mole fraction),"in methanol, 318.15 K",0.0715
same,solubility (mole fraction),"in methanol, 323.15 K",0.0786
same,solubility (mole fraction),"in methanol, 328.15 K",0.0903
same,solubility (mole fraction),"in n-butanol, 293.15 K",0.00344
same,solubility (mole fraction),"in n-butanol, 298.15 K",0.00441
same,solubility (mole fraction),"in n-butanol, 303.15 K",0.00545
same,solubility (mole fraction),"in n-butanol, 308.15 K",0.00709
same,solubility (mole fraction),"in n-butanol, 313.15 K",0.00865
same,solubility (mole fraction),"in n-butanol, 318.15 K",0.0105
same,solubility (mole fraction),"in n-butanol, 323.15 K",0.0127
same,solubility (mole fraction),"in n-butanol, 328.15 K",0.0159
same,solubility (mole fraction),"in n-butanol, 333.15 K",0.0203
same,solubility (mole fraction),"in n-propanol, 293.15 K",0.00522
same,solubility (mole fraction),"in n-propanol, 298.15 K",0.00628
same,solubility (mole fraction),"in n-propanol, 303.15 K",0.00728
same,solubility (mole fraction),"in n-propanol, 308.15 K",0.00878
same,solubility (mole fraction),"in n-propanol, 313.15 K",0.0112
same,solubility (mole fraction),"in n-propanol, 318.15 K",0.0141
same,solubility (mole fraction),"in n-propanol, 323.15 K",0.0171
same,solubility (mole fraction),"in n-propanol, 328.15 K",0.0214
same,solubility (mole fraction),"in n-propanol, 333.15 K",0.027
same,solubility (mole fraction),"in water, 293.15 K",5.82e-05
same,solubility (mole fraction),"in water, 298.15 K",7.34e-05
same,solubility (mole fraction),"in water, 303.15 K",8.66e-05
same,solubility (mole fraction),"in water, 308.15 K",0.000108
same,solubility (mole fraction),"in water, 313.15 K",0.000126
same,solubility (mole fraction),"in water, 318.15 K",0.000156
same,solubility (mole fraction),"in water, 323.15 K",0.000204
same,solubility (mole fraction),"in water, 328.15 K",0.000251
same,solubility (mole fraction),"in water, 333.15 K",0.000309
